Source: PubChem BioAssay (NCI)
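Where inhibition never reached the appropriate level, the endpoint shown equals the highest concentration tested. Otherwise, values were interpolated linearly from a five-concentration, 48-hour dose response in 96-well plates. TGI is the concentration that stops growth completely.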

Key:
Experiment in all cases: NCI anticancer screen, dose series, 48 h
[1] = system: NCI-H23 lung
[2] = system: HT29 colon
[3] = system: OVCAR-3 ovarian
[4] = system: NCI-H460 lung
[5] = system: MDA-MB-231 breast
[6] = system: SF-295 CNS
[7] = system: MCF7 breast
[8] = system: TK-10 renal
[9] = system: HL-60(TB) leukemia
[10] = system: SNB-19 CNS
[11] = system: IGROV1 ovarian
[12] = system: A549 NSCLC
[13] = system: SF-539 CNS
[14] = system: MDA-N

Compound	TGI [1]	TGI [2]	TGI [3]	TGI [4]	TGI [5]	TGI [6]	TGI [7]	TGI [8]	TGI [9]	TGI [10]	TGI [11]	TGI [12]	TGI [13]	TGI [14]
CC1=C(S(=O)c2ccc(C)cc2)CCC2(CCCCO2)O1 (stereo not given)	> 100 µM	> 100 µM	> 100 µM	> 100 µM	> 100 µM	> 100 µM	> 100 µM	> 100 µM	> 100 µM	> 100 µM	> 100 µM			
CC(C)(C)c1cc(Oc2ccc(C#N)c(C#N)c2)cc(C(C)(C)C)c1	> 100 µM	> 100 µM	> 100 µM	> 100 µM		> 100 µM		> 100 µM	> 100 µM	> 100 µM	> 100 µM	> 100 µM	> 100 µM	
CC1C2CC(CC2O)C1(C)C (stereo not given)	> 100 µM	> 100 µM	> 100 µM	> 100 µM	> 100 µM	> 100 µM		> 100 µM	> 100 µM	> 100 µM	> 100 µM	> 100 µM	> 100 µM	> 100 µM
COc1ccc2[nH]c3c(C)c4ccnc(NCCCN(C)CCCN)c4c(C)c3c2c1	0.87 µM	0.17 µM	1.54 µM	0.213 µM	0.248 µM	0.66 µM	0.313 µM	1.35 µM		0.403 µM	0.678 µM		0.28 µM	0.496 µM
CC(=O)C1=C(C)N(c2ccc(C)cc2)C2(O)C=CC(=O)C3=C(O)c4ccccc4C(=O)C312 (stereo not given)	52.5 µM	15.7 µM	16.1 µM	> 100 µM	70.2 µM	43.3 µM	> 100 µM	47.2 µM	> 100 µM	> 100 µM	> 100 µM	> 100 µM	97.6 µM	
COc1ccccc1NC(=O)CC(=O)n1nc(-c2ccccc2)c(N=Nc2ccccc2[N+](=O)[O-])c1-c1ccccc1	> 100 µM	> 100 µM	> 100 µM	> 100 µM		> 100 µM		> 100 µM	> 100 µM	> 100 µM	> 100 µM	> 100 µM	> 100 µM	
O=S(=O)(c1ccccc1)n1cnc(CCc2ccccc2)n1	> 100 µM	> 100 µM	> 100 µM	> 100 µM		> 100 µM		> 100 µM	> 100 µM		> 100 µM	> 100 µM	> 100 µM	
Cc1no[n+]([O-])c1/C=N/NS(=O)(=O)c1ccccc1	> 100 µM	> 100 µM	> 100 µM					> 100 µM	> 100 µM	> 100 µM	> 100 µM	> 100 µM	> 100 µM	
CC(=O)N1N=C(c2ccccc2Nc2ccccc2C2=NN(C(C)=O)C(c3ccccc3)O2)OC1c1ccccc1 (stereo not given)	> 100 µM	> 100 µM	> 100 µM	> 100 µM	> 100 µM	> 100 µM	> 100 µM	> 100 µM		> 100 µM	> 100 µM	> 100 µM		> 100 µM
C=C(C)C1Cc2c(cc(OC)c3c(=O)c4ccccc4n(C)c23)O1 (stereo not given)	> 100 µM	> 100 µM	> 100 µM	> 100 µM		> 100 µM		> 100 µM	> 100 µM	> 100 µM	> 100 µM	> 100 µM	> 100 µM	
COc1ccc(N2C(=O)C(C#N)=C(SC)C(C#N)C2=O)cc1 (stereo not given)		> 100 µM		> 100 µM	> 100 µM	> 100 µM	> 100 µM	> 100 µM		> 100 µM	> 100 µM	> 100 µM	> 100 µM	> 100 µM
C[N+](C)(C)CC(=O)N/N=C/c1oc(-c2cccc([N+](=O)[O-])c2)c(-c2cccc([N+](=O)[O-])c2)c1[N+](=O)[O-]	> 100 µM	> 100 µM		> 100 µM				> 100 µM	> 100 µM	> 100 µM	> 100 µM	> 100 µM	> 100 µM	
CNC(=O)C1CCC(=O)N1CN(C(C)=O)c1ccccc1 (stereo not given)	> 100 µM	> 100 µM	> 100 µM	> 100 µM	> 100 µM	> 100 µM	> 100 µM	> 100 µM		> 100 µM	> 100 µM	> 100 µM	> 100 µM	> 100 µM
Nc1cccc(/C=C/CN2CCN(CCOC(c3ccccc3)c3ccccc3)CC2)c1	30.7 µM	13.1 µM	29.1 µM	27.7 µM	30.3 µM	31.4 µM	29.4 µM	29.6 µM	22.9 µM	30.7 µM	30.1 µM	29.7 µM	31.7 µM	
Cc1cc(CN(Cc2ccccc2)Cc2nc3ccccc3[nH]2)c(O)c(CN(Cc2nc3ccccc3[nH]2)Cc2nc3ccccc3[nH]2)c1	> 79.5 µM	> 69.6 µM	63.5 µM	28 µM	> 71.4 µM	> 61.6 µM	8.87 µM	> 67.9 µM		> 25.1 µM	> 93.2 µM	> 95.1 µM	22.4 µM	29 µM
COC(=O)c1ccc(-n2c(C)nc(=O)c(-c3ccccc3)c2C)cc1	> 100 µM	> 100 µM	> 100 µM	> 100 µM	> 100 µM	> 100 µM	> 100 µM	> 100 µM	> 100 µM	> 100 µM	> 100 µM	> 100 µM	> 100 µM	
NC(CCC(=O)NC(CSC(=O)N(O)c1ccc(Cl)cc1)C(=O)NCC(=O)O)C(=O)O (stereo not given)	> 0.5 µM	> 0.5 µM	> 0.5 µM	> 0.5 µM	> 0.5 µM	> 0.5 µM	> 0.5 µM			> 0.5 µM	> 0.5 µM	> 0.5 µM	> 0.5 µM	> 0.5 µM
CCOC(=O)CCC(NC(=O)c1ccc(OCc2ccc3nc(OC)c(OC)nc3c2)cc1)C(=O)OCC (stereo not given)	> 100 µM	> 100 µM	49.9 µM	> 100 µM		> 100 µM	> 100 µM	> 100 µM	73.5 µM	> 100 µM	> 100 µM	> 100 µM	> 100 µM	> 100 µM
O=C(Cc1nc2ccc(C(=O)c3ccccc3)cc2[nH]c1=O)C(=O)Nc1ccc(C(F)(F)F)cc1[N+](=O)[O-]	> 100 µM	> 100 µM	> 100 µM	> 100 µM		> 100 µM		> 100 µM	> 100 µM	> 100 µM	> 100 µM	> 100 µM	> 100 µM	

Compound	TGI [1]	TGI [2]	TGI [3]	TGI [4]	TGI [5]	TGI [6]	TGI [7]	TGI [8]	TGI [9]	TGI [10]	TGI [11]	TGI [12]	TGI [13]	TGI [14]
CC(=O)C(CN(C)Cc1ccccc1)C(c1ccccc1)c1c(O)c2ccccc2oc1=O (stereo not given)	> 100 µM	> 100 µM		> 100 µM		> 100 µM		> 100 µM	> 100 µM	93.2 µM	> 100 µM	> 100 µM	> 100 µM	
OC1=CN=C(C2CC2)Oc2ccccc21	> 100 µM	> 100 µM	> 100 µM	> 100 µM		> 100 µM		> 100 µM	> 100 µM	> 100 µM	> 100 µM	> 100 µM	> 100 µM	
Cc1ccc(S(=O)(=O)C(C#N)c2nc3ccccc3nc2N2CCOCC2)cc1 (stereo not given)	55.1 µM		91.6 µM	39.7 µM				> 100 µM		95.6 µM	59.1 µM	> 100 µM	> 100 µM	
c1ccc(-c2sc(-c3ccccc3)c3c2C2CCC3C2)cc1	> 100 µM	34.5 µM	> 100 µM	88.2 µM	> 100 µM	> 100 µM		89.7 µM	> 100 µM	> 100 µM	> 100 µM	> 100 µM	67.7 µM	> 100 µM
CCOC(=O)c1ncn2c1[nH]c(=O)c1ccccc12	> 100 µM	> 100 µM	> 100 µM	> 100 µM		> 100 µM		> 100 µM		> 100 µM	> 100 µM	> 100 µM	> 100 µM	
c1csc(-c2cscc2-c2cccs2)c1	> 100 µM	> 100 µM	47.3 µM	> 100 µM	> 100 µM	> 100 µM	49.5 µM	> 100 µM	> 100 µM	> 100 µM	> 100 µM	> 100 µM	51.4 µM	
c1ccc2c(c1)ncn2CCn1ccnc1	> 100 µM	> 100 µM	> 100 µM	> 100 µM	> 100 µM	> 100 µM	> 100 µM	> 100 µM	> 100 µM	> 100 µM	> 100 µM	> 100 µM	> 100 µM	
O=C(Nc1sccc1S(=O)(=O)c1ccc(Cl)cc1)c1ccc(Cl)cc1Cl	> 100 µM	> 100 µM	> 100 µM	> 100 µM	> 100 µM	> 100 µM	> 100 µM	> 100 µM	> 100 µM	> 100 µM	> 100 µM	> 100 µM	> 100 µM	
O=C(OCC(Cl)(Cl)Cl)N1CC[C@@H](C2CCCCC2)C1	64.2 µM		32.2 µM	43.8 µM	> 100 µM	38.9 µM	45.5 µM	> 100 µM		38.6 µM	> 100 µM	> 100 µM		> 100 µM
CCNC(=S)Nc1c(C#N)c2n(c1C(=O)OCC)CCCCC2	> 100 µM	> 100 µM		> 100 µM	> 100 µM	> 100 µM	> 100 µM	> 100 µM	> 100 µM	> 100 µM	> 100 µM		> 100 µM	
COC1=CCC2=C(CCN(C(=O)C3CC3)C2Cc2ccc(OC)c(O)c2)C1 (stereo not given)	66.1 µM	> 100 µM	> 100 µM	> 100 µM	> 100 µM	> 100 µM	> 100 µM	> 100 µM	91.7 µM	> 100 µM	> 100 µM	> 100 µM	> 100 µM	
CC1(C)CC(=O)C(CC2C(=O)c3ccccc3C2=O)C(=O)C1C(=O)C(=O)Nc1cccc2ccc(O)cc12 (stereo not given)	> 100 µM	> 100 µM	> 100 µM	> 100 µM	> 100 µM	> 100 µM	> 100 µM	> 100 µM	> 100 µM	> 100 µM	> 100 µM	> 100 µM	> 100 µM	
CC(C)(C)OC(=O)N(CCCCNC(=O)c1ccccc1)CCCNC(=O)c1ccccc1	> 100 µM	> 100 µM	> 100 µM	> 100 µM	> 100 µM	> 100 µM	> 100 µM	> 100 µM	> 100 µM	> 100 µM	> 100 µM	> 100 µM	> 100 µM	
O=C1CC(NCCCNC2CC(=O)c3c(Br)sc(Br)c32)c2c(Br)sc(Br)c21 (stereo not given)	4.36 µM	4.96 µM		> 100 µM	4.3 µM	14.3 µM		4.61 µM	> 100 µM	6.75 µM	3.7 µM	> 100 µM	8.56 µM	5.54 µM
CCOC(=O)C1=COC(C)(C)CC1=O	> 100 µM	> 100 µM	> 100 µM	> 100 µM	> 100 µM	> 100 µM	> 100 µM	> 100 µM		> 100 µM		> 100 µM	> 100 µM	> 100 µM
Cc1ccc([S+](c2ccccc2)c2cc(C)ccc2C)cc1 (stereo not given)			> 100 µM	> 100 µM		69.1 µM			66.5 µM	> 100 µM	25.3 µM	> 100 µM	> 100 µM	
COc1ccc(C(=O)/C=C/c2ccc(OCC#N)cc2)cc1OC	54.5 µM	74.7 µM	49.1 µM	> 100 µM	42.2 µM		16 µM	70 µM		29.9 µM	> 100 µM	> 100 µM	36.9 µM	
COC(=O)NN/C=C(\C=Nc1ccccc1)[N+](=O)[O-]	> 100 µM	> 100 µM	> 100 µM	> 100 µM				> 100 µM	> 100 µM	> 100 µM	> 100 µM	> 100 µM		
